Assay results published in patent US20090227533A1, “miR-34 Regulated Genes and Pathways as Targets for Therapeutic Intervention” (priority 2007, published 2009).

Tests used:
HeLa = settings: cited from earlier work
H226 cells = experiment: Alamar Blue proliferation assay, lung cancer cells (electroporation); assay type: cell-based, human; settings: hsa-miR-34a (head: 30 nM), electroporation, 72 hours, normalized to NC (100%)
Description: (§1) The inventors assessed the therapeutic effect of hsa-miR-34a for lung cancer by using eight individual lung cancer cell lines. To measure cellular proliferation of lung cancer cells, the following non-small cell lung cancer (NSCLC) cells were used: cells derived from lung adenocarcinoma (A549, H522, Calu-3, HCC2935), cells derived from lung squamous cell carcinoma (H226), cell derived from lung adenosquamous cell carcinoma (H596), cells derived from lung bronchioalveolar carcinoma (H1650), and cells derived from lung large cell carcinoma (H460). Synthetic hsa-miR-34a (Pre-miR™-hsa-miR-34a, Ambion cat. no. AM17100) or negative control (NC) miRNA (Pre-miR™ microRNA Precursor Molecule-Negative Control #2; Ambion cat. no. AM17111) was delivered via lipid-based transfection into A549, H522, H596, Calu-3, HCC2935, H1650, H460 cells and via electroporation into H226 cells.
Lipid-based reverse transfections were carried out in triplicate according to a published protocol (Ovcharenko et al., 2005) and the following parameters: cells (5,000-12,000 per 96 well), 0.1-0.2 μl Lipofectamine™ 2000 (cat. no. 11668-019, Invitrogen Corp., Carlsbad, Calif., USA) in 20 μl OptiMEM (Invitrogen), 30 nM final concentration of miRNA in 100 μl. Electroporation of H226 cells was carried out using the BioRad Gene Pulser Xcell™ instrument (BioRad Laboratories Inc., Hercules, Calif., USA) with the following settings: 5×10^6 cells with 5 μg miRNA in 200 μl OptiMEM (1.6 μM miRNA), square wave pulse at 250 V for 5 ms. Electroporated H226 cells were seeded at 7,000 cells per 96-well in a total volume of 100 μl. All cells except for Calu-3 cells were harvested 72 hours post transfection or electroporation for assessment of cellular proliferation. Calu-3 cells were harvested 10 days post transfection. Proliferation assays were performed using Alamar Blue (Invitrogen) following the manufacturer's instructions. As a control for inhibition of cellular proliferation, siRNA against the motor protein kinesin 11, also known as Eg5, was used. […]

A549 cells = experiment: Alamar Blue proliferation assay, lung cancer cells; assay type: cell-based, human; settings: hsa-miR-34a 30 nM, lipid transfection, 72 hours, normalized to NC (100%)
Description: as §1
(§2) Lipid-based reverse transfections were carried out in triplicate according to a published protocol (Ovcharenko et al., 2005) and the following parameters: cells (5,000-12,000 per 96 well), 0.1-0.2 μl Lipofectamine™ 2000 (cat. no. 11668-019, Invitrogen Corp., Carlsbad, Calif., USA) in 20 μl OptiMEM (Invitrogen), 30 nM final concentration of miRNA in 100 μl. Electroporation of H226 cells was carried out using the BioRad Gene Pulser Xcell™ instrument (BioRad Laboratories Inc., Hercules, Calif., USA) with the following settings: 5×10^6 cells with 5 μg miRNA in 200 μl OptiMEM (1.6 μM miRNA), square wave pulse at 250 V for 5 ms. Electroporated H226 cells were seeded at 7,000 cells per 96-well in a total volume of 100 μl. All cells except for Calu-3 cells were harvested 72 hours post transfection or electroporation for assessment of cellular proliferation. Calu-3 cells were harvested 10 days post transfection. Proliferation assays were performed using Alamar Blue (Invitrogen) following the manufacturer's instructions. As a control for inhibition of cellular proliferation, siRNA against the motor protein kinesin 11, also known as Eg5, was used. Eg5 is essential for cellular survival of most eukaryotic cells and a lack thereof leads to reduced cell proliferation and cell death (Weil et al., 2002). siEg5 was used in lipid-based transfection following the same experimental parameters that apply to miRNA. The inventors also used a DNA topoisomerase II inhibitor, etoposide, at a final concentration of 10 μM and 50 μM as an internal standard for the potency of miRNAs. Etoposide is an FDA-approved DNA topoisomerase II inhibitor in the treatment of lung cancer. […] Percent (%) proliferation values from the Alamar Blue assay were normalized to values from cells treated with negative control miRNA. Percent proliferation of hsa-miR-34a treated cells relative to cells treated with negative control miRNA (100%) is shown in Table 7 and in FIG. 1.

H460 cells = experiment: Alamar Blue proliferation assay, lung cancer cells; assay type: cell-based, human; settings: hsa-miR-34a 30 nM, lipid transfection, 72 hours, normalized to NC (100%)
Description: as §1, §2

Calu-3 cells = experiment: Alamar Blue proliferation assay, lung cancer cells; assay type: cell-based, human; settings: 10 days post transfection
Description: as §1, §2

H596 cells = experiment: Alamar Blue proliferation assay, lung cancer cells; assay type: cell-based, human; settings: hsa-miR-34a 30 nM, lipid transfection, 72 hours, normalized to NC (100%)
Description: as §1, §2

HCC2935 cells = experiment: Alamar Blue proliferation assay, lung cancer cells; assay type: cell-based, human; settings: hsa-miR-34a 30 nM, lipid transfection, 72 hours, normalized to NC (100%)
Description: as §1, §2

H522 cells = experiment: Alamar Blue proliferation assay, lung cancer cells; assay type: cell-based, human; settings: hsa-miR-34a 30 nM, lipid transfection, 72 hours, normalized to NC (100%)
Description: as §1, §2

H1650 cells = experiment: Alamar Blue proliferation assay, lung cancer cells; assay type: cell-based, human; settings: hsa-miR-34a 30 nM, lipid transfection, 72 hours, normalized to NC (100%)
Description: as §1, §2

[1] = system: prostate cancer cells PPC-1, Du145, LNCaP and RWPE2; experiment: Alamar Blue proliferation assay, average over four prostate cancer cell lines; assay type: cell-based, human
Description: The inventors assessed the therapeutic effect of hsa-miR-34a for prostate cancer by using four individual human prostate cancer cell lines. To measure cellular proliferation of prostate cancer cells, the following prostate cancer cell lines were used: PPC-1, derived from a bone metastasis; Du145, derived from a brain metastasis; RWPE2, derived from prostate cells immortalized by human papillomavirus 18 and transformed by the K-RAS oncogene; and LNCaP, derived from a lymph node metastasis (Bello et al., 1997; Pretlow et al., 1993; Stone et al., 1978; Brothman et al., 1991; Horoszewicz et al., 1980). PPC-1 and Du145 cells lack expression of the prostate-specific antigen (PSA) and are independent of androgen receptor (AR) signaling. In contrast, RWPE2 and LNCaP cells test positive for PSA and AR. Cells were transfected with synthetic hsa-miR-34a (Pre-miR™-hsa-miR-34a, Ambion cat. no. AM17100) or negative control miRNA (NC; Pre-miR™ microRNA Precursor Molecule-Negative Control #2; Ambion cat. no. AM17111) in a 96-well format using a lipid-based transfection reagent. […] Proliferation was assessed 4-7 days post-transfection using Alamar Blue™ (Invitrogen) following the manufacturer's instructions. […] Fluorescent light units (FLU) were measured after 3 hours, normalized to the control, and plotted as percent change in proliferation. […]

[2] = system: prostate cancer cells (22Rv1); settings: cited from earlier work

Substance: hsa-miR-34a: synthetic miRNA; mature sequence UGGCAGUGUCUUAGCUGGUUGUU (MIMAT0000255; SEQ ID NO:1) (synthetic miRNA, chemistry not given here)
- programmed cell death (apoptosis) (HeLa): decreased
- % proliferation (H226 cells): 89.50%
- % proliferation (A549 cells): 75.95%
- % proliferation (H460 cells): 77.46%
- % proliferation (Calu-3 cells; Calu-3, hsa-miR-34a 30 nM, lipid transfection, normalized to NC (100%)): 28.51%
- reduction of proliferation (Calu-3 cells; Calu-3 cells, 30 nM, relative to negative control miRNA): 71.49%
- % proliferation (H596 cells): 73.19%
- % proliferation (HCC2935 cells): 80.19%
- % proliferation (H522 cells): 94.41%
- % proliferation (H1650 cells): 78.37%
- average inhibition of cellular proliferation ([1]; average over four prostate cancer cell lines, 30 nM, relative to negative control miRNA): 37.18%
- growth-inhibitory activity compared with siEg5 ([1]; prostate cancer cell lines): comparable to that of Eg5-directed siRNA
- proliferation [2]: inhibits the proliferation
